In series [1] the test system is mice. Description: Locomotor activity (ultromotivity) measurement, evaluation of sedative action. To be noted: for Significant difference test of ultromotivity: Tukey's method; for Ultromotivity (count) 60 minutes / Significant difference test of ultromotivity: 60 minutes. The series is classed as in vivo. The procedure:
(§1) In the following Examples, all extracts and drugs used were dissolved in physiological saline before use for i.p. administration and the dose was 0.1 ml of physiological saline per 10 g of mouse body weight in either case. All extracts and drugs were suspended in physiological saline containing 1% carboxymethylcellulose before use for oral administration and the dose was 0.1 ml of 1% carboxymethylcellulose-containing physiological saline suspension per 10 g of mouse body weight in either case. Male ICR mice (Japan SLC) having a body weight of 25 to 30 g were used in the tests below unless otherwise stated, and were fed in advance at a room temperature of 23±1° C. and a relative humidity of 55±5% in the environment of a 12-hour-light and 12-hour-dark cycle at 7 and 19 for 3 to 5 days. The mice were allowed to have water and feed freely.
Twenty five mice were grouped into five groups each having five mice, to which 5 mg/kg of N-methylcoclaurine hydrochloride (treatment group 1-1: i.p. administration), 50 mg/kg of neferine hydrochloride (treatment group 1-2: oral administration, and treatment group 1-3: i.p. administration), 50 mg/kg of liensinine hydrochloride (treatment group 1-4: oral administration), or physiological saline (negativity control group 1-1: i.p. administration) was administered. The ultromotivity of the mice was analyzed by using a locomotor activity monitoring system (NS-AS01, Neuroscience Inc.). The ultromotivity measurements were performed at an interval of 5 minutes for 60 minutes, and the ultromotivity was judged from the count at each measuring time.
Similar tests were conducted by i.p. administration of 25 mg/kg of N-norarmepavine (treatment group 1-5, n=6), 25 mg/kg of O,O-dimethylcoclaurine (treatment group 1-6, n=5), 10 mg and 25 mg/kg of armepavine (respectively, treatment group 1-7, n=6, and treatment group 1-8, n=6), 10 mg and 25 mg/kg of O-methylarmepavine (respectively, treatment group 1-9, n=6, and treatment group 1-10, n=6), and physiological saline (negativity control group 1-2, n=5). The ultromotivity measurements were performed at an interval of five minutes for 60 minutes, and the ultromotivity was subjected to a significant difference test (Tukey's method) by using the counts at respective measuring times.
(§2) Tests were performed by using mice administered intraperitoneally with 25 mg/kg of neferine hydrochloride (treatment group 7-1, n=6), 25 mg/kg of liensinine hydrochloride (treatment group 7-2, n=6), and physiological saline (negativity control group, n=6) as well as 5 mg/kg of diazepam (positive control group, n=6) and a rotarod equipment (Ugo Basile, Italy) and a locomotor activity monitoring system (NS-ASO1, Neuroscience Inc.). The rotarod test was performed by placing a mouse on a rod having a diameter of 4 cm rotating at a speed of 8 rpm 15 minutes after drug administration and observing whether the mouse can stay on the rod without falling for three minutes. The individuals that had fallen from the rotating rod in the period of 3 minutes were judged that they are with motor coordination disorder. […] In addition, the ultromotivity measurements were performed at an interval of five minutes for 60 minutes, and the ultromotivity results were subjected to a significant difference test (Tukey's method) by using the counts at respective measuring times.

The test system of series [2] is mice. Description: Thiopental sleep-enhancing test. It is filed as in vivo. To be noted: 15 minutes before thiopental 60 mg/kg i.p. The procedure: as §1
Actions on thiopental sleep by various compounds were evaluated. Thiopental dissolved in physiological saline was administered intraperitoneally into mice at a dose of 60 mg/kg. 50 mg/kg of neferine hydrochloride (treatment group 2-1, n=9), 50 mg/kg of isoliensinine hydrochloride (treatment group 2-2, n=9), 100 mg/kg of lien tzehsin 2 extract hydrochloride (treatment group 2-3, n=9), only physiological saline (negativity control group, n=6), or 1 mg/kg of diazepam (positive control group, n=9) was administered intraperitoneally into the mice 15 minutes before the thiopental administration. The time when the righting reflex of the mice disappeared after thiopental administration was designated as sleep-induction time, while total sleep time was calculated from the induction time and the time when the righting reflex was restored.

Series [3] relates to mice. Kind of series: Rotarod test (muscle relaxation, motor coordination). It is filed as in vivo. To be noted: n=6, 8 rpm, 3 minutes, 15 minutes after administration. The procedure:
as §1, §2

The conditions of series [4]: Seibu et al., no specific data; cited from earlier work.
Series [5] has as its system mice. Description: Suppression of methamphetamine-enhanced ultromotivity. The series is classed as in vivo. Conditions: for Ultromotivity (count): hydrochloride, methamphetamine 1 mg/kg 15 minutes later, 60 minutes. The procedure:
as §1
The effects of neferine on suppression of the enhancement of ultromotivity by methamphetamine were evaluated.
Fifteen mice were grouped into three groups of five mice, to which 50 mg/kg of neferine hydrochloride (treatment group 3-1), 100 mg/kg of the same (treatment group 3-2), and only physiological saline (negativity control group) were administered respectively intraperitoneally. Methamphetamine (1 mg/kg) was administered 15 minutes after the administration. After administration of methamphetamine, each of the mice was placed in a transparent polycarbonate cage (22.5 cm×33.8 cm×14.0 cm), where the ultromotivity of the mouse was analyzed for 60 minutes by using a locomotor activity analyzer (NS-AS01, Neuroscience Inc.).

Series [6] relates to mice. Description: Glass ball-covering behavior test. The series is classed as in vivo. Conditions: hydrochloride, 20 balls. Here is the method: as §1
In evaluating glass ball-covering behavior, wood chip for breeding (beta chip) (Oriental Yeast Co., Ltd.) was placed in the transparent cage described in Example 3 to a depth of 5 cm, on which 20 glass balls (diameter: 1.5 cm) were placed evenly.
Twenty-one mice were grouped into three groups of seven mice, to which 25 mg/kg of neferine hydrochloride (treatment group 6-1), 50 mg/kg of the same (treatment group 6-2), and physiological saline (negativity control group) were administered intraperitoneally, respectively. A mouse was placed in the case 15 minutes after administration, and the number of the glass balls not covered with the wood chip was counted by visual observation at an interval of 10 minutes. The number of balls having ⅔ of the surface thereof being embedded in the wood chip was counted as the criteria for judgment.

Series [7] has as its system mice. Description: Elevated plus-maze test. It is filed as in vivo. Conditions: 100 mg/kg i.p., hydrochloride, 30 minutes after administration, 5 minutes. Here is the method: In the following Examples, all extracts and drugs used were dissolved in physiological saline before use for i.p. administration and the dose was 0.1 ml of physiological saline per 10 g of mouse body weight in either case. All extracts and drugs were suspended in physiological saline containing 1% carboxymethylcellulose before use for oral administration and the dose was 0.1 ml of 1% carboxymethylcellulose-containing physiological saline suspension per 10 g of mouse body weight in either case. […]
An elevated plus-maze (Neuroscience Inc.) consisting of 2 arms without high walls and 2 arms enclosed by high walls, which were crossing perpendicular to each other, was used for evaluation. A mouse was placed on the platform at the center in a position facing toward an arm enclosed by high walls, and the number of times the mouse entered into both arms and the period of the mouse staying in the arms without walls were determined during a period of 5 minutes. The results were evaluated by the ratios of the number of the mouse entering into the arms with walls with respect to the total number of entering into both arms (%) and by the period of the mouse staying in the arms without walls (%). […]

Series [8] relates to mice. Conditions: Ito et al.; cited from earlier work.
The test system of series [9] is mice. Description: Forced swimming test (Porsolt). It is filed as in vivo. Conditions: 100 mg/kg i.p., hydrochloride, 6-minute period. The procedure: as §1
Forced swimming tests were conducted according to the method of Porsolt et al. A mouse was placed in a cylindrical glass water tank of 10 cm in diameter and 25 cm in height (water temperature: 23° C.) filled with water to a depth of 10 cm and forced to swim therein. […] Each mouse was forced to swim 15 and 30 minutes after administration, and the immobile times during the 6-minute periods immediately after forced swimming were determined. […]

For `COc1cc2c(cc1O)[C@@H](Cc1ccc(O)cc1)N(C)CC2` [N-methylcoclaurine], the “Sedative activity compared with neferine and liensinine (in words)” value in the series with mice [1] (5 mg/kg i.p. versus 50 mg/kg) is “extremely higher activity”. Besides, in the series with mice [1] (5 mg/kg i.p., hydrochloride), the “Ultromotivity (count) 30 minutes” value is given as 250 count and the “Ultromotivity (count) 60 minutes” value turned out to be 250 count.
With `CN1C(=O)CN=C(c2ccccc2)c2cc(Cl)ccc21` [diazepam, reference compound], the “Total sleep time” value in the series with mice [2] (1 mg/kg i.p.) is 130 min. Besides, the “Significant difference test of ultromotivity” value (from here on “Significant difference test”) with mice [1] (5 mg/kg i.p.) is listed as “P < 0.005”. The “Number of individuals fallen” value in the series on mice [3] (5 mg/kg i.p.) was 5.
In the case of `COc1ccc(C[C@@H]2c3cc(Oc4cc(C[C@@H]5c6cc(O)c(OC)cc6CCN5C)ccc4O)c(OC)cc3CCN2C)cc1` [isoliensinine], in the series with mice [2] (50 mg/kg i.p., hydrochloride), the “Total sleep time” value stood at 120 min.
For the molecule `COc1cc2c(cc1OC)[C@@H](Cc1ccc(O)c(Oc3cc4c(cc3OC)CCN(C)[C@@H]4Cc3ccc(O)cc3)c1)N(C)CC2` [liensinine], the “Significant difference test” value in the series on mice [1] (25 mg/kg i.p., hydrochloride) is “In declining”. Moreover, in the series with mice [1] (50 mg/kg oral, hydrochloride), the “Ultromotivity (count) 30 minutes” value amounted to 600 count and the “Ultromotivity (count) 60 minutes” value was determined as 800 count. Moreover, in the series with mice [3] (25 mg/kg i.p., hydrochloride), the “Number of individuals fallen” value was found to be 0.
As to `COc1ccc(C[C@@H]2c3cc(Oc4cc(C[C@@H]5c6cc(OC)c(OC)cc6CCN5C)ccc4O)c(OC)cc3CCN2C)cc1` [neferine], in [4], the “Antihypertensive action (in words)” value is “exhibited an antihypertensive action”. Moreover, the “Total sleep time” value with mice [2] (50 mg/kg i.p., hydrochloride) was determined as 100 min. Besides, the “Significant difference test” value in the series on mice [1] (25 mg/kg i.p., hydrochloride) is recorded as “P < 0.01”. For the same molecule, in the series on mice [1] (50 mg/kg i.p., hydrochloride), the “Ultromotivity (count) 30 minutes” value was determined as 500 count and the “Ultromotivity (count) 60 minutes” value came to 760 count. In the series on mice [1] (50 mg/kg oral, hydrochloride), the “Ultromotivity (count) 30 minutes” value amounted to 500 count and the “Ultromotivity (count) 60 minutes” value was determined as 750 count. The “Ultromotivity (count)” value in the series with mice [5] (50 mg/kg i.p.) is recorded as 2600 count. Moreover, in the series with mice [5] (100 mg/kg i.p.), the “Ultromotivity (count)” value was determined as 1800 count. The “Action on ultromotivity enhancement by methamphetamine (in words)” value with mice [5] (50 and 100 mg/kg i.p.) is listed as “obvious action suppressing the ultromotivity enhancement by methamphetamine”. Moreover, in the series on mice [6] (25 mg/kg i.p.), the “Number of glass balls not covered with wood chip After 10 minutes” value is reported as 4, the “Number of glass balls not covered with wood chip After 20 minutes” value came out at 7 and the “Number of glass balls not covered with wood chip After 30 minutes” value came to 10. For the same molecule, in the series on mice [6] (50 mg/kg i.p.), the “Number of glass balls not covered with wood chip After 10 minutes” value was found to be 3, the “Number of glass balls not covered with wood chip After 20 minutes” value is 6 and the “Number of glass balls not covered with wood chip After 30 minutes” value turned out to be 9. Moreover, in the series on mice [7] (arms without walls), the “Staying period (%)” value came to 33%. Besides, the “Invasion times (%)” value in the series with mice [7] (ratio to total entries) was determined as 70%. Besides, the “Locomotor activity-inhibiting action (in words)” value in the series on mice [8] is given as “exhibited a locomotor activity-inhibiting action”. The “Immobile time (sec) After 15 minutes” value with mice [9] (15 minutes after administration) was 165 s. Also, in the series with mice [9] (30 minutes after administration), the “Immobile time (sec) After 30 minutes” value was 170 s. Further, the “Number of individuals fallen” value in the series with mice [3] (25 mg/kg i.p., hydrochloride) is given as 0.

(Values after patent US20060030586A1, “Method and health food for preventing and/or alleviating psychiatric disorder, and/or for effectuating sedation” (Education Center of Traditional Chinese Medicine Co., priority 2004, published 2006).)
